Tests used:
[1] = tested on: AdipoR1; assay: Measurement of AMPK phosphorylation ability (Assay 2), C2C12 cells with unrelated or AdipoR1 siRNA; type: cell-based, Mouse
Method: C2C12 cells (ATCC; CRL-1772, medium; DMEM, 10% Fetal Bovine Serum (FBS)) were cultured in a 12- or 24-well plate until they reached 100% confluency (37° C., 5% CO2). The medium was changed to DMEM, 2.5% Horse Serum (HS) and differentiation was started. The medium (DMEM, 2.5% HS) was replaced two days after the start of differentiation. The medium (DMEM, 2.5% HS) was further replaced two days after that.
On the next day following the replacement of the medium, first, 1 μL of Lipofectamine RNAiMAX and 50 μL of OPTI-MEM were mixed, and then 5 μM siRNA (sense siRNA sequence: […]tt (SEQ ID NO: 1)) and 50 μL of OPTI-MEM were mixed and the resultants were left to stand at room temperature for 5 minutes. And then, the 1 μL Lipofectamine RNAiMAX/50 μL OPTI-MEM and the 5 μM siRNA/50 μL OPTI-MEM were mixed, and the resultant was left to stand at room temperature for 10 minutes, which was added to the cells.
After 5 minutes, the medium (DMEM, 2.5 HS) was replaced, and after starvation on the next day, a test compound listed in Table 12 was added thereto. After 10 minutes, the medium was discarded and the plate was frozen with liquid nitrogen.
The respective amounts of pAMPK and AMPK were determined in the same way as in the above Assay 1.

[2] = tested on: AdipoR1-AMPK pathway and AdipoR2-PPARα pathway in the liver; assay: Liver: gene expression, TG content, TBARS in mice fed a HF diet; type: in vivo
Method: (§1) Real-time PCR was carried out according to the method described previously^a,b,c. Total RNA was prepared from cells or tissues with Trizol (Invitrogen) according to the manufacturer's instructions. We used a real-time PCR method to quantify the mRNAs^19, with slight modifications.
(§2) Skeletal muscle homogenates were extracted, and tissue triglyceride content was determined as described previously^a-c, with some modifications. To investigate whether oxidative stress was increased, we measured lipid peroxidation, a marker of oxidative injury, as represented by plasma thiobarbituric acid reactive substance (TBARS) as described previously^4. Briefly, tissue samples were homogenized in a buffer solution containing 50 mM Tris-HCl (pH 7.4) and 1.15% KCl, and then centrifuged. The supernatant was used for the assay. The levels of lipid peroxidation in tissue homogenate and plasma were measured in terms of the amount of TBARS using the LPO test (Wako Pure Chemical Industries).

[3] = tested on: db/db mice; assay: TG content, oxidative stress and inflammation in insulin target tissues in db/db mice; type: in vivo
Method: Mitochondrial content assays were carried out as described previously^a,b, with slight modifications. For quantification of mitochondrial content, we used mtDNAas previously described^c.
as §1, §2

[4] = tested on: Lepr−/− (db/db) mice; assay: Anti-diabetic effects in db/db mice; type: in vivo
Method: (§3) Mice were 6-10 week of age at the time of the experiment. They were housed in cages and maintained on a 12 hr light-dark cycle.
Male Lepr^−/− (aged 6-10 week) were purchased from Jackson Laboratory. When the mice in the same genotype received different treatments, they were randomly assigned to treatment groups.
(§4) Plasma glucose levels were determined by using a glucose B-test (Wako Pure Chemical Industries). Plasma insulin was measured with an insulin immunoassay (Shibayagi). Plasma NEFAs (Wako Pure Chemical Industries) were assayed by enzymatic methods.
The oral glucose tolerance test (OGTT) and insulin tolerance test (ITT) were conducted as previously described^a,b with slight modifications. The areas of the glucose and insulin curves were calculated by multiplying the cumulative mean height of the glucose values (1 mg/ml=1 cm) and insulin values (1 ng/ml=1 cm), respectively, by time (60 min=1 cm)^c,a. The insulin resistance index was calculated from the product of the areas of glucose and insulin×10^−2 in the glucose tolerance test. The results are expressed as the percentage of the value respect to control littermates.

[5] = tested on: mice fed a HF diet; assay: Effects on lipid metabolism: plasma triglycerides and free fatty acid in mice fed a HF diet; type: in vivo
Method: as §3, §4

[6] = molecular target: T1, AdipoR1 (Homo sapiens, UniProt Q96A54); assay: Surface plasmon resonance, affinity for AdipoR1; type: binding; parameters: made in house; conditions: SPR
T1 sequence (Q96A54 1-375): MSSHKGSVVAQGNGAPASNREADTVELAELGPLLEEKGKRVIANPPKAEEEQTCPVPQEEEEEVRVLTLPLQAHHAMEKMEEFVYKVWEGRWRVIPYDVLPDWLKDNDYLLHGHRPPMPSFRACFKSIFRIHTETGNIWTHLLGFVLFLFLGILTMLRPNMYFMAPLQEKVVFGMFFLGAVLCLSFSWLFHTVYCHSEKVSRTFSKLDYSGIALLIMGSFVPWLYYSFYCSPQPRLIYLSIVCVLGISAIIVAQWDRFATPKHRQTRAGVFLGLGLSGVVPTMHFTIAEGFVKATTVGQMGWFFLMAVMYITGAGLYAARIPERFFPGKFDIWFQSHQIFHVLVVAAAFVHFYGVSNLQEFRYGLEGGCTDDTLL
Method: Surface plasmon resonance measurements were performed by a BIAcore X100 system (GE Healthcare) and sensor chip SA (GE Healthcare). Human AdipoR1 and AdipoR2 were expressed with the baculovirus system, and purified to homogeneity. The AdipoR1 and AdipoR2 samples were then reconstituted into egg-phosphatidylcholine liposomes containing biotinyl phosphatidylethanolamine (Avanti), as previously reported^a. Mouse full-length adiponectin was generated as previously described^b,c,d,e. AdipoR1 and AdipoR2 were immobilized onto a sensor chip SA to levels of 2,500-3,000 response units (RU) using standard immobilization protocols (GE Healthcare).
Experiments were performed at 25° C. using AdipoRon (0.49-31.25 μM) and adiponectin (1.5 ng-3.75 μg) and using electrophoresis buffer (20 mM Hepes (pH 7.4), 200 mM NaCl, 10% glycerol, […] surfactant P20). Biacore X100 Evaluation Software was used to determine the equilibrium dissociation constant (KD) of the compound or proteins.

[7] = Adipor1/r2 double-knockout mice fed with a HF diet
[8] = WT mice fed a HF diet, oral 50 mg/kg, 10 days

Q: Which results are given for O=C(COc1ccc(C(=O)c2ccccc2)cc1)NC1CCN(Cc2ccccc2)CC1 [Compound 73, 2-(4-benzoyl-phenoxy)-N-(1-benzylpiperidin-4-yl)acetamide]?
A: pAMPK/AMPK (ratio) siRNA, AdipoR1 siRNA ([1]; AdipoR1 siRNA): 2.68 ratio; pAMPK/AMPK (ratio) siRNA, unrelated siRNA ([1]; unrelated siRNA): 4.75 ratio; effect on TG content and TBARS in the liver [2, 7]: such effect was not observed; expression level of genes encoding pro-inflammatory cytokines in the liver [2, 7]: such effect was not observed; expressions of Ppargc1a and G6pc in the liver [2, 7]: such effect was not observed; expression levels of Pparα and its target genes (Acox1, Ucp2, Cat) in the liver ([2]; WT mice fed a HF diet): increased the expression levels; TG content in the liver ([2]; WT mice fed with a HF diet): significantly reduced TG content; expression level of genes encoding pro-inflammatory cytokines (Tnf, Ccl2) in the liver ([2]; WT mice fed with a HF diet): reduced the expression level; expressions of Ppargc1a and G6pc in the liver ([2]; WT mice fed with a HF diet): significantly decreased the expressions; oxidative stress, as measured by TBARS, in the liver ([2]; WT mice fed with a HF diet): significantly reduced; TG content in the liver [3]: significantly reduced TG content; expression levels of genes encoding pro-inflammatory cytokines in the liver [3]: reduced expression levels; expression levels of genes encoding pro-inflammatory cytokines, macrophage markers, M1 macrophage markers in the WAT [3]: reduced the expression levels; expression of Pparα and its target genes in the liver [3]: increased the expression; expressions of Ppargc1a, Pck1 and G6pc in the liver [3]: significantly decreased expressions; oxidative stress in the liver [3]: significantly reduced; TG content and TBARS in skeletal muscles ([3]; oral): decreased TG content and TBARS; levels of Acadm and Sod2 in skeletal muscles ([3]; oral): significantly increased; levels of genes involved in mitochondrial biogenesis functions and DNA content in skeletal muscles ([3]; oral): significantly increased; plasma glucose level ([4]; oral 50 mg/kg body weight): decreased plasma glucose level; glucose intolerance, insulin resistance and dyslipidemia ([4]; oral, 2 weeks): significantly ameliorated; reduction of plasma TG and FFA ([5]; Adipor1/r2 double-knockout mice): not observed; plasma concentration of free fatty acid (FFA) [5, 8]: reduced; plasma concentration of triglycerides (TG) [5, 8]: reduced; Rmax [6]: 14.6 RU; Kd ([6]; 25° C., read-out: equilibrium dissociation constant (KD)): 1.8 µM

Reference: patent US20170298051A1, “ACTIVATOR OF ADIPONECTIN RECEPTOR” (THE UNIVERSITY OF TOKYO, priority 2013, published 2017)
